Laboratory results taken from patent publication US5968910A, “Compositions containing two or three inhibitors of different HIV reverse transcriptases” (priority 1994, dated 1999).
Values after ≈ are worked out from the molar mass of the structure shown. Like-named read-outs stand apart in the source and are kept apart here.

Columns and labels:
[1] = test system: HIV-1/Nev (106-Ala); assay: Sensitivity of mutant HIV-1 strain in CEM cell cultures; type: cell-based; conditions: Human immunodeficiency virus 1, CCRF-CEM; CEM cells, Table 1; read-out: 50% Effective Concentration
Procedure, shortened: (§1)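 CEM cells at 250,000 cells/ml were infected with HIV-1 at 100 CCID50 per ml, then mixed with serial dilutions of test compound. After 4 days at 37° C., cultures were scored for syncytium formation.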

[2] = test system: HIV-1/TIBO R82913 (103-Asn); assay: as above; type: cell-based; conditions: Human immunodeficiency virus 1, CCRF-CEM; CEM cells, Table 1; read-out: 50% Effective Concentration
Procedure, shortened: as §1

[3] = test system: HIV-1/V(0.5) 103-Asn; assay: as above; type: cell-based; conditions: Human immunodeficiency virus 1, CCRF-CEM; Table 5; read-out: EC50
Procedure, shortened: as §1

[4] = test system: HIV-1/IV(0.1) 103-Thr; assay: as above; type: cell-based; conditions: Human immunodeficiency virus 1, CCRF-CEM; Table 5; read-out: EC50
Procedure, shortened: as §1

[5] = test system: HIV-1/I(0.1) 103-Asn; assay: as above; type: cell-based; conditions: Human immunodeficiency virus 1, CCRF-CEM; Table 5; read-out: EC50
Procedure, shortened: as §1

[6] = test system: HIV-1/TIBO R82150 (100-Ile); assay: as above; type: cell-based; conditions: Human immunodeficiency virus 1, CCRF-CEM; CEM cells, Table 1; read-out: 50% Effective Concentration
Procedure, shortened: as §1

[7] = test system: HIV-1/TSAO-m^3 T (138-Lys); assay: as above; type: cell-based; conditions: Human immunodeficiency virus 1, CCRF-CEM; CEM cells, Table 1; read-out: 50% Effective Concentration
Procedure, shortened: as §1

[8] = test system: HIV-1/Pyr (181-Cys); assay: as above; type: cell-based; conditions: Human immunodeficiency virus 1, CCRF-CEM; CEM cells, Table 1; read-out: 50% Effective Concentration
Procedure, shortened: as §1

[9] = test system: HIV-1/V(0.1) 101-Ile + 141-Glu; assay: as above; type: cell-based; conditions: Human immunodeficiency virus 1, CCRF-CEM; Table 5; read-out: EC50
Procedure, shortened: as §1

[10] = test system: HIV-1/III(0.1) 103-Asn; assay: as above; type: cell-based; conditions: Human immunodeficiency virus 1, CCRF-CEM; Table 5; read-out: EC50
Procedure, shortened: as §1

[11] = test system: HIV-1/II(0.1) 100-Ile; assay: as above; type: cell-based; conditions: Human immunodeficiency virus 1, CCRF-CEM; Table 5; read-out: EC50
Procedure, shortened: as §1

[12] = test system: HIV-1(IIIB) (WT); assay: microbe, parasite or virus in culture; type: cell-based; conditions: Human immunodeficiency virus 1, IIIB, CCRF-CEM
Procedure, shortened: as §1

[13] = biological target: HIV-1 RT (WT) (Human immunodeficiency virus type 1 group M subtype B, UniProt P03366); assay: biochemical
Procedure, shortened: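 Inhibition read as reduced incorporation of [2,8-³H]dGTP (2.95 μM) into acid-precipitable product on a poly(C).oligo(dG) template/primer (0.1 mM). Recombinant RT, test compounds in 5-fold dilutions; 30 min, 37° C, pH 7.8 Tris buffer with 5 mM Mg2+, 150 mM KCl.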

[14] = test system: HIV-1(IIIB); assay: Knock-out concentrations: breakthrough of HIV-1(IIIB)-induced cytopathicity in CEM cell cultures; type: cell-based; conditions: for activity at 0.1 µg/mL / activity at 0.5 µg/mL / activity at 2.5 µg/mL: Human immunodeficiency virus 1, IIIB, CCRF-CEM, read-out: HIV-1-induced cytopathicity in cell culture; for activity at 0.1 µg/mL: 0.1 μg/ml; for activity at 0.5 µg/mL: 0.5 μg/ml; for activity at 2.5 µg/mL: 2.5 μg/ml
Procedure, shortened: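 CEM cells in RPMI 1640 with 10% FBS infected with HIV-1(IIIB) at ~1000× CCID50, subcultured every 3–4 days into fresh uninfected cells with drug held constant for 10 subcultivations (35 days), then ≥5 drug-free passages. Breakthrough scored by syncytium formation. Combinations used the two lowest single-drug starting concentrations.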

[15] = 936 h, day 39 post infection, compound absent from day 35
[16] = 1008 h, day 42 post infection, compound absent from day 35
[17] = 1104 h, day 46 post infection, compound absent from day 35
[18] = 1176 h, day 49 post infection, compound absent from day 35
[19] = 1272 h, day 53 post infection, compound absent from day 35

Compound: Cc1occc1C(=S)Nc1ccc(Cl)c(C(=O)OC2CCCC2)c1 [Compound IV]
- EC50 [1]: 0.04 µg/mL (≈ 0.11 µM)
- EC50 [2]: 0.7 µg/mL (≈ 1.92 µM)
- EC50 [3]: 0.65 µg/mL (≈ 1.79 µM)
- EC50 [4]: 0.53 µg/mL (≈ 1.46 µM)
- EC50 [5]: 0.2 µg/mL (≈ 0.55 µM)
- EC50 [6]: 0.17 µg/mL (≈ 0.467 µM)
- EC50 [7]: 0.035 µg/mL (≈ 0.0962 µM)
- EC50 [8]: 0.045 µg/mL (≈ 0.124 µM)
- EC50 [9]: 0.11 µg/mL (≈ 0.302 µM)
- EC50 [10]: 0.14 µg/mL (≈ 0.385 µM)
- EC50 [11]: 0.4 µg/mL (≈ 1.1 µM)
- EC50 ([12]; CEM cells, Table 1, read-out: 50% Effective Concentration): 0.005 µg/mL (≈ 0.0137 µM)
- EC50 ([12]; HIV-1 (III8), Table 5, read-out: EC50): 0.005 µg/mL (≈ 0.0137 µM)
- IC50 ([12]; range stated for Compounds I-V together, read-out: 50% inhibitory concentration, HIV-1(IIIB) replication in CEM cells): 0.004 to 0.05 µg/mL (≈ 0.011 to 0.137 µM)
- IC50 ([13]; range stated for the compounds together, poly(C).oligo(dG), 2.95 μM [2,8-3H]dGTP, read-out: IC50 on recombinant HIV-1 RT): 49.5 to 212 nM
- IC50 ([13]; substrate [2,8-3H]dGTP 2.95 μM, template poly(rC)oligo(dG), read-out: IC50, anti-HIV-1 RT (WT) activity (converted)): 49.5 nM
- prevention of virus breakthrough, fold more efficient than BHAP [14]: at least 5 fold
- prevention of virus breakthrough, fold more efficient than nevirapine [14]: ≥ 25 fold
- activity at 0.1 µg/mL ([14]; 96 h, day 4 post infection): 0%
- activity at 0.5 µg/mL ([14]; 96 h, day 4 post infection): 0%
- activity at 2.5 µg/mL ([14]; 96 h, day 4 post infection): 0%
- activity at 0.1 µg/mL ([14]; 192 h, day 8 post infection): 0%
- activity at 0.5 µg/mL ([14]; 192 h, day 8 post infection): 0%
- activity at 2.5 µg/mL ([14]; 192 h, day 8 post infection): 0%
- activity at 0.1 µg/mL ([14]; 264 h, day 11 post infection): 0%
- activity at 0.5 µg/mL ([14]; 264 h, day 11 post infection): 0%
- activity at 2.5 µg/mL ([14]; 264 h, day 11 post infection): 0%
- activity at 0.1 µg/mL ([14]; 336 h, day 14 post infection): 6.2%
- activity at 0.5 µg/mL ([14]; 336 h, day 14 post infection): 0%
- activity at 2.5 µg/mL ([14]; 336 h, day 14 post infection): 0%
- activity at 0.1 µg/mL ([14]; 408 h, day 17 post infection): 25%
- activity at 0.5 µg/mL ([14]; 408 h, day 17 post infection): 0%
- activity at 2.5 µg/mL ([14]; 408 h, day 17 post infection): 0%
- activity at 0.1 µg/mL ([14]; 504 h, day 21 post infection): 87.5%
- activity at 0.5 µg/mL ([14]; 504 h, day 21 post infection): 0%
- activity at 2.5 µg/mL ([14]; 504 h, day 21 post infection): 0%
- activity at 0.1 µg/mL ([14]; 600 h, day 25 post infection): 100%
- activity at 0.5 µg/mL ([14]; 600 h, day 25 post infection): 0%
- activity at 2.5 µg/mL ([14]; 600 h, day 25 post infection): 0%
- activity at 0.1 µg/mL ([14]; 672 h, day 28 post infection): 100%
- activity at 0.5 µg/mL ([14]; 672 h, day 28 post infection): 0%
- activity at 2.5 µg/mL ([14]; 672 h, day 28 post infection): 0%
- activity at 0.1 µg/mL ([14]; 768 h, day 32 post infection): 100%
- activity at 0.5 µg/mL ([14]; 768 h, day 32 post infection): 0%
- activity at 2.5 µg/mL ([14]; 768 h, day 32 post infection): 0%
- activity at 0.1 µg/mL ([14]; 840 h, day 35 post infection): 100%
- activity at 0.5 µg/mL ([14]; 840 h, day 35 post infection): 0%
- activity at 2.5 µg/mL ([14]; 840 h, day 35 post infection): 0%
- activity at 0.1 µg/mL [14, 15]: 100%
- activity at 0.5 µg/mL [14, 15]: 0%
- activity at 2.5 µg/mL [14, 15]: 0%
- activity at 0.1 µg/mL [14, 16]: 100%
- activity at 0.5 µg/mL [14, 16]: 0%
- activity at 2.5 µg/mL [14, 16]: 0%
- activity at 0.1 µg/mL [14, 17]: 100%
- activity at 0.5 µg/mL [14, 17]: 0%
- activity at 2.5 µg/mL [14, 17]: 0%
- activity at 0.1 µg/mL [14, 18]: 100%
- activity at 0.5 µg/mL [14, 18]: 0%
- activity at 2.5 µg/mL [14, 18]: 0%
- activity at 0.1 µg/mL [14, 19]: 100%
- activity at 0.5 µg/mL [14, 19]: 0%
- activity at 2.5 µg/mL [14, 19]: 0%
- concentration at which virus emerged (virus breakthrough) ([14]; tested at 0.1, 0.5 and 2.5 μg/ml, 35 days): 0.1 µg/mL
